Experimental data from the NIST ThermoML archive (doi:10.1016/j.tca.2018.01.008).
± gives the expanded uncertainty stated by the source.

Settings: 293.15 K; 101.33 kPa; Liquid; transient hot wire

thermal conductivity [W/m/K]	Structure (SMILES)
0.25 ± 0.004	OCCO [1,2-ethanediol]
0.597 ± 0.01	O [water]
